PMC11940309, “Endocrine-Disrupting Activities of Flavones on Steroid Receptors: Structural Requirements and Synthesis of Novel Flavone with Improved Estrogenic Activity” (Biomedicines, 2025)

Tests used:
[1] = test system: estrogen receptor (ER); assay: ER-mediated luciferase reporter induction in T47D KBluc cells; type: cell-based, human; conditions: for % ER Induction: relative to 1nM estradiol
Protocol: Experiments testing the effect of flavonoids on estrogen receptor-mediated transcription employed T47D KBluc cells. These cells were maintained in RPMI medium with 10% FBS, penicillin (100 U/mL), and streptomycin (100 μg/mL). For reporter gene experiments, cells were detached as above and replated at 50% confluency in phenol red-free RPMI media with 10% charcoal-stripped FBS and antibiotics (day one). All subsequent steps used phenol red-free medium and trypsin. On day three, the medium was replaced with fresh medium. On day five, cells were washed with PBSE, detached, resuspended, diluted, and replated in the phenol red-free RPMI with charcoal-stripped serum (50,000 cells per well as above).
(§1) For all cell lines, cell harvesting and the luminescence assay for alkaline phosphatase and/or luciferase were performed as previously described in detail. Each condition was performed in quadruplicate. […] Percent inhibition is 100 minus the percent induction.

[2] = test system: estrogen receptor (ER); design: method as in PMID 11925457; conditions: previous report; cited from earlier work
[3] = target: T1, human AR (Homo sapiens, UniProt P10275); assay: AR-mediated induction of PSA-luciferase reporter by R1881 in HeLa13 cells; type: cell-based; conditions: R1881 1.0 nM, read-out: % Inhibition of AR-Mediated Gene Induction
T1 construct: expressed in transfected cells; host or cells: HeLa13 (HeLa 13)
T1 sequence (P10275 1-920): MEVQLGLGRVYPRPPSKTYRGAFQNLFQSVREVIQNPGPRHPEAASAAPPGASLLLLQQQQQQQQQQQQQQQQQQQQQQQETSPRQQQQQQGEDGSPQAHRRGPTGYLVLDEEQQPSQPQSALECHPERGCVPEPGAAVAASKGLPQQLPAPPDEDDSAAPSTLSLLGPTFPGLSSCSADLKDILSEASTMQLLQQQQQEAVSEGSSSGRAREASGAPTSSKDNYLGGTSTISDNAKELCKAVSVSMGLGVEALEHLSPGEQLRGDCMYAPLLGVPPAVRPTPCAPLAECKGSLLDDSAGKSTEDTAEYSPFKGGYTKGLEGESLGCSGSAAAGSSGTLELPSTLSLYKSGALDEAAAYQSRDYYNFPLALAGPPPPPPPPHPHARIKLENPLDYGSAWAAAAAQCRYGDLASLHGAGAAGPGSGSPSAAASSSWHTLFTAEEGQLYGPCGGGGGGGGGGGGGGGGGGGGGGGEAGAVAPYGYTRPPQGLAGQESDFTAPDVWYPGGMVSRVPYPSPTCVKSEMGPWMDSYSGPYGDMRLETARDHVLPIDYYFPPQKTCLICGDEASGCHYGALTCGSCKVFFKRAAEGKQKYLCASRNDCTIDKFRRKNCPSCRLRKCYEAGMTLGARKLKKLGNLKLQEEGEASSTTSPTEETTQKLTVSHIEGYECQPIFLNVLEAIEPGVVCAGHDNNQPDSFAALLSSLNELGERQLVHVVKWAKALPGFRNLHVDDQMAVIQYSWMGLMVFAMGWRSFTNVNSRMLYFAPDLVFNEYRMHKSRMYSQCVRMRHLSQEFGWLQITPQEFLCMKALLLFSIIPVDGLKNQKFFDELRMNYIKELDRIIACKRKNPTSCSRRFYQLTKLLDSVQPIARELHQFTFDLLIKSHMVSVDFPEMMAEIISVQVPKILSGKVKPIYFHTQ
Description: (§2) The engineered T47D breast cancer cell lines employed for the assessment of flavonoid activity on glucocorticoid receptor (GR) and progesterone receptor (PR) signaling permitted the facile quantitation transcription of both an endogenous gene and a stably integrated reporter gene. […] The T47D K5pLuc cell line responds to progestins via induction of a stably integrated cytokeratin 5-luciferase reporter gene. […] For assessment of the effect of the test compounds on androgen receptor (AR) signaling, we used the HeLa13 cell line engineered to stably express human AR and a PSA-luciferase reporter gene containing a 4× multimerized PSA upstream enhancer ARE1 linked to the E4 TATA box and luciferase gene.
Experiments testing the effect of flavonoid on androgen receptor-mediated transcription employed HeLa 13 cells maintained in MEM medium supplemented with 10% FBS, 0.5 mg/mL G418, 0.05 mg/mL Hygromycin B, […], and streptomycin (100 μg/mL). For reporter gene experiments, cells were replated at a 1:5 dilution in MEM medium with 5% charcoal-stripped FBS and the antibiotics mentioned above. The medium was changed the next day. After 48 h, the cells were washed with PBSE, detached with phenol red-free trypsin, pelleted, resuspended and plated in 96 well plates as above. Hormone and flavonoid treatments were performed as described above with the HeLa 13 medium and charcoal-stripped FBS. When treated with hormone, the synthetic androgen, R1881, was used at 1.0 nM. Hormone treatment was for 20 h at which time cells were harvested for assay of luciferase.
as §1

[4] = target: T2, progesterone receptor (PR) (Homo sapiens, UniProt P06401); assay: PR-mediated induction of transcription by R5020 in T47D K5pLuc cells (luciferase reporter and endogenous alkaline phosphatase); type: cell-based; conditions: T47D, 8 µM, R5020 1.0 nM
T2 sequence (P06401 679-933 limits assumed): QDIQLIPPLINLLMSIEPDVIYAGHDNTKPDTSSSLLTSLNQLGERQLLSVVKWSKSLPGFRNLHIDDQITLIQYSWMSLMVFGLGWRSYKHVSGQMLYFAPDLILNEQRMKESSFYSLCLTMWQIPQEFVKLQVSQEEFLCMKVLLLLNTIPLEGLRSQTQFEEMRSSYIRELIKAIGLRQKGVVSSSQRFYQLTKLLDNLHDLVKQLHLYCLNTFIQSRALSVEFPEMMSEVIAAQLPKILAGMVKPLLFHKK
Description: as §2
Experiments testing the effect of flavonoids on progesterone receptor-mediated transcription employed T47D K5pluc cells. The protocol was the same as that for T47D (A1-2) cells except the medium was Dulbecco’s Modified Eagle’s Medium supplemented with 10% FBS, insulin (10 nM), puromycin 200 ng/mL, nonessential amino acids, penicillin (100 U/mL), and streptomycin (100 μg/mL). When treated with hormone, the synthetic progestin, R5020, was used at 1.0 nM. Hormone treatment was for 20 h at which time cells were harvested for assay of alkaline phosphatase and luciferase.
as §1

Q: With `O=c1c(O)c(-c2ccc(O)cc2)oc2ccc(O)cc12` [3,6,4′-trihydroxyflavone] as the molecule, how does the “% ER Induction” value ([1]; 1 µM) read?
A: Its value is 102%.

Q: What about the “% ER Induction” value ([1]; 4 µM) of the same molecule?
A: Its value is 108%.

Q: And the “EC50 lower than that of 6,4′-dihydroxyflavone” value ([1]; comparison at lower concentrations)?
A: The value was 2–3 fold.

Q: What about the “affinity for ER greater than that of 6,4′-dihydroxyflavone” value [2] of the same molecule?
A: Its value is 3 fold.

Q: What about the inhibition at 1 µM [3] of the same molecule?
A: Its inhibition at 1 µM is 53%.

Q: What about the inhibition at 4 µM [3] of the same molecule?
A: The inhibition at 4 µM was 71%.

Q: Which “% ER Induction” value ([1]; 1 µM) does the source give for `COc1ccc2oc(-c3ccc(O)cc3)cc(=O)c2c1` [6-methoxy,4′-hydroxyflavone] here?
A: The value was 129%.

Q: And the “% ER Induction” value ([1]; 4 µM)?
A: Its value is 167%.

Q: What about the inhibition at 1 µM [3] of the same molecule?
A: Its inhibition at 1 µM is 27%.

Q: What about the inhibition at 4 µM [3] of the same molecule?
A: Its inhibition at 4 µM is 49%.

Q: For `Oc1ccc(C2COc3cc(O)ccc3C2)cc1` (stereo not drawn) [7,4′-dihydroxyisoflavan], which “% ER Induction” value ([1]; 1 µM) is on record?
A: The value was 96%.

Q: What about the “% ER Induction” value ([1]; 4 µM) of the same molecule?
A: The value was 84%.

Q: What about the inhibition at 8 µM ([4]; AP (alkaline phosphatase)) of the same molecule?
A: The inhibition at 8 µM was 42%.

Q: And the inhibition at 8 µM ([4]; LUC (luciferase))?
A: The inhibition at 8 µM was -88%.

Q: And the inhibition at 4 µM [3]?
A: Its inhibition at 4 µM is 22%.
